Values after ≈ are worked out from the molar mass of the structure shown.
Tests used:
M. avium = assay: Antibacterial activity (MIC) against M. avium; format: cell-based, Mycobacterium avium
Description: Antibacterial activity of the compounds of the invention was measured in accordance with the method described in the literature of Antimicrob. […] In the tables, “OFLX” is an abbreviation of “OFLOXAIN”.

M. intracellulare = assay: Antibacterial activity (MIC) against M. intracellulare; format: cell-based, Mycobacterium intracellulare
Description: Antibacterial activity of the compounds of the invention was measured in accordance with the method described in the literature of Antimicrob. Agents and Chemother., 38, 2877 (1994), and the results are shown in Tables 3 to 8 in terms of MIC (μg/ml). In the tables, “OFLX” is an abbreviation of “OFLOXAIN”.

[1] = test system: Mycobacterium tuberculosis (RFP sensitive); assay: Antibacterial activity (MIC) against Mycobacterium tuberculosis (RFP sensitive); format: cell-based
[2] = M. intracellulare N-294, Table 3
[3] = M. intracellulare N-313, Table 3
[4] = M. intracellulare N-338, Table 3
[5] = M. intracellulare N-345, Table 3
[6] = M. tuberculosis Kurono, Table 5
[7] = M. tuberculosis No. 40, Table 5
[8] = M. tuberculosis No. 68, Table 5
[9] = M. tuberculosis No. 41, Table 5
[10] = M. tuberculosis No. 43, Table 5

C[C@H]1COc2c(N3CC(N)C4(CC4)C3)c(F)cc3c(=O)c(C(=O)O)cn1c23 (stereo partly drawn) [Compd. 14]
MIC (M. avium; M. avium N-357, Table 3): 1.56 µg/mL (≈ 4.18 µM)
MIC (M. avium; M. avium N-444, Table 3): 3.13 µg/mL (≈ 8.38 µM)
MIC (M. avium; M. avium N-458, Table 3): 1.56 µg/mL (≈ 4.18 µM)
MIC (M. avium; M. avium N-472, Table 3): 6.25 µg/mL (≈ 16.7 µM)
MIC (M. intracellulare; [2]): 3.13 µg/mL (≈ 8.38 µM)
MIC (M. intracellulare; [3]): 0.78 µg/mL (≈ 2.09 µM)
MIC (M. intracellulare; [4]): 6.25 µg/mL (≈ 16.7 µM)
MIC (M. intracellulare; [5]): 6.25 µg/mL (≈ 16.7 µM)
MIC ([1]; M. tuberculosis H37Rv, Table 5): 0.20 µg/mL (≈ 0.536 µM)
MIC [1, 6]: 0.10 µg/mL (≈ 0.268 µM)
MIC [1, 7]: 0.20 µg/mL (≈ 0.536 µM)
MIC [1, 8]: 0.20 µg/mL (≈ 0.536 µM)

CC1COc2c(N3CCN(C)CC3)c(F)cc3c(=O)c(C(=O)O)cn1c23 (stereo not drawn) [OFLX, OFLOXAIN, reference compound]
MIC (M. avium; M. avium N-357, Table 3): 3.13 µg/mL (≈ 8.66 µM)
MIC (M. avium; M. avium N-357, Table 4 (series 2)): 4.0 µg/mL (≈ 11.1 µM)
MIC (M. avium; M. avium N-444, Table 3): 25 µg/mL (≈ 69.2 µM)
MIC (M. avium; M. avium N-444, Table 4 (series 2)): 32 µg/mL (≈ 88.6 µM)
MIC (M. avium; M. avium N-458, Table 3): 3.13 µg/mL (≈ 8.66 µM)
MIC (M. avium; M. avium N-458, Table 4 (series 2)): 4.0 µg/mL (≈ 11.1 µM)
MIC (M. avium; M. avium N-472, Table 3): 50 µg/mL (≈ 138 µM)
MIC (M. avium; M. avium N-472, Table 4 (series 2)): 128 µg/mL (≈ 354 µM)
MIC (M. intracellulare; [2]): 12.5 µg/mL (≈ 34.6 µM)
MIC (M. intracellulare; M. intracellulare N-294, Table 4 (series 2)): 8.0 µg/mL (≈ 22.1 µM)
MIC (M. intracellulare; [3]): 6.25 µg/mL (≈ 17.3 µM)
MIC (M. intracellulare; M. intracellulare N-313, Table 4 (series 2)): 1.0 µg/mL (≈ 2.77 µM)
MIC (M. intracellulare; [4]): 25 µg/mL (≈ 69.2 µM)
MIC (M. intracellulare; M. intracellulare N-338, Table 4 (series 2)): 2.0 µg/mL (≈ 5.53 µM)
MIC (M. intracellulare; [5]): 25 µg/mL (≈ 69.2 µM)
MIC (M. intracellulare; M. intracellulare N-345, Table 4 (series 2)): 2.0 µg/mL (≈ 5.53 µM)
MIC ([1]; M. tuberculosis H37Rv, Table 5): 0.39 µg/mL (≈ 1.08 µM)
MIC ([1]; M. tuberculosis H37Rv, Table 6 (series 2)): 1.0 µg/mL (≈ 2.77 µM)
MIC [1, 6]: 0.39 µg/mL (≈ 1.08 µM)
MIC ([1]; M. tuberculosis Kurono, Table 6 (series 2)): 0.50 µg/mL (≈ 1.38 µM)
MIC [1, 7]: 0.39 µg/mL (≈ 1.08 µM)
MIC ([1]; M. tuberculosis No. 40, Table 6 (series 2)): 1.0 µg/mL (≈ 2.77 µM)
MIC [1, 9]: 0.10 µg/mL (≈ 0.277 µM)
MIC ([1]; M. tuberculosis No. 41, Table 6 (series 2)): 0.25 µg/mL (≈ 0.692 µM)
MIC ([1]; M. tuberculosis No. 43, Table 6 (series 2)): 8.0 µg/mL (≈ 22.1 µM)
MIC [1, 8]: 0.39 µg/mL (≈ 1.08 µM)
MIC ([1]; M. tuberculosis No. 68, Table 6 (series 2)): 1.0 µg/mL (≈ 2.77 µM)

COc1c(N2CC3CCCNC3C2)c(F)cc2c(=O)c(C(=O)O)cn(C3CC3)c12 (stereo not drawn) [Compd. 5]
MIC (M. avium; M. avium N-357, Table 3): 0.39 µg/mL (≈ 0.972 µM)
MIC (M. avium; M. avium N-444, Table 3): 1.56 µg/mL (≈ 3.89 µM)
MIC (M. avium; M. avium N-458, Table 3): 0.78 µg/mL (≈ 1.94 µM)
MIC (M. intracellulare; [2]): 1.56 µg/mL (≈ 3.89 µM)
MIC (M. intracellulare; [3]): 0.78 µg/mL (≈ 1.94 µM)
MIC (M. intracellulare; [4]): 1.56 µg/mL (≈ 3.89 µM)
MIC (M. intracellulare; [5]): 3.13 µg/mL (≈ 7.8 µM)
MIC ([1]; M. tuberculosis H37Rv, Table 5): 0.10 µg/mL (≈ 0.249 µM)
MIC [1, 6]: 0.05 µg/mL (≈ 0.125 µM)
MIC [1, 7]: 0.10 µg/mL (≈ 0.249 µM)
MIC [1, 9]: 0.025 µg/mL (≈ 0.0623 µM)
MIC [1, 10]: 0.78 µg/mL (≈ 1.94 µM)
MIC [1, 8]: 0.10 µg/mL (≈ 0.249 µM)

Cc1c(N2CC3CCCNC3C2)c(F)cc2c(=O)c(C(=O)O)cn([C@@H]3C[C@@H]3F)c12 (stereo partly drawn) [Compd. 10]
MIC (M. avium; M. avium N-357, Table 3): 0.05 µg/mL (≈ 0.124 µM)
MIC (M. avium; M. avium N-444, Table 3): 0.39 µg/mL (≈ 0.967 µM)
MIC (M. avium; M. avium N-458, Table 3): 0.10 µg/mL (≈ 0.248 µM)
MIC (M. avium; M. avium N-472, Table 3): 0.39 µg/mL (≈ 0.967 µM)
MIC (M. intracellulare; [2]): 0.39 µg/mL (≈ 0.967 µM)
MIC (M. intracellulare; [3]): 0.10 µg/mL (≈ 0.248 µM)
MIC (M. intracellulare; [4]): 0.39 µg/mL (≈ 0.967 µM)
MIC (M. intracellulare; [5]): 0.78 µg/mL (≈ 1.93 µM)
MIC ([1]; M. tuberculosis H37Rv, Table 5): 0.013 µg/mL (≈ 0.0322 µM)
MIC [1, 6]: 0.006 µg/mL (≈ 0.0149 µM)
MIC [1, 7]: 0.006 µg/mL (≈ 0.0149 µM)
MIC [1, 9]: <0.003 µg/mL
MIC [1, 10]: 0.05 µg/mL (≈ 0.124 µM)
MIC [1, 8]: 0.013 µg/mL (≈ 0.0322 µM)

NC1CN(c2c(F)cc3c(=O)c(C(=O)O)cn([C@@H]4C[C@@H]4F)c3c2Cl)CC12CC2 (stereo partly drawn) [Compd. 4]
MIC (M. avium; M. avium N-357, Table 3): 0.20 µg/mL (≈ 0.488 µM)
MIC (M. avium; M. avium N-444, Table 3): 0.78 µg/mL (≈ 1.9 µM)
MIC (M. avium; M. avium N-458, Table 3): 0.39 µg/mL (≈ 0.952 µM)
MIC (M. avium; M. avium N-472, Table 3): 1.56 µg/mL (≈ 3.81 µM)
MIC (M. intracellulare; [2]): 1.56 µg/mL (≈ 3.81 µM)
MIC (M. intracellulare; [3]): 0.39 µg/mL (≈ 0.952 µM)
MIC (M. intracellulare; [4]): 1.56 µg/mL (≈ 3.81 µM)
MIC (M. intracellulare; [5]): 3.13 µg/mL (≈ 7.64 µM)
MIC ([1]; M. tuberculosis H37Rv, Table 5): 0.025 µg/mL (≈ 0.061 µM)
MIC [1, 6]: 0.013 µg/mL (≈ 0.0317 µM)
MIC [1, 7]: 0.025 µg/mL (≈ 0.061 µM)
MIC [1, 9]: <0.003 µg/mL
MIC [1, 10]: 0.20 µg/mL (≈ 0.488 µM)
MIC [1, 8]: 0.025 µg/mL (≈ 0.061 µM)

NC1CN(c2c(F)cc3c(=O)c(C(=O)O)cn(C4CC4)c3c2Cl)CC12CC2 (stereo not drawn) [Compd. 3]
MIC (M. avium; M. avium N-357, Table 3): 0.39 µg/mL (≈ 0.995 µM)
MIC (M. avium; M. avium N-444, Table 3): 1.56 µg/mL (≈ 3.98 µM)
MIC (M. avium; M. avium N-458, Table 3): 0.78 µg/mL (≈ 1.99 µM)
MIC (M. avium; M. avium N-472, Table 3): 6.25 µg/mL (≈ 16 µM)
MIC (M. intracellulare; [2]): 1.56 µg/mL (≈ 3.98 µM)
MIC (M. intracellulare; [3]): 0.39 µg/mL (≈ 0.995 µM)
MIC (M. intracellulare; [4]): 1.56 µg/mL (≈ 3.98 µM)
MIC (M. intracellulare; [5]): 1.56 µg/mL (≈ 3.98 µM)
MIC ([1]; M. tuberculosis H37Rv, Table 5): 0.10 µg/mL (≈ 0.255 µM)
MIC [1, 6]: 0.05 µg/mL (≈ 0.128 µM)
MIC [1, 7]: 0.10 µg/mL (≈ 0.255 µM)
MIC [1, 9]: 0.006 µg/mL (≈ 0.0153 µM)
MIC [1, 10]: 0.78 µg/mL (≈ 1.99 µM)
MIC [1, 8]: 0.10 µg/mL (≈ 0.255 µM)

COc1c(N2CC3CCCNC3C2)c(F)cc2c(=O)c(C(=O)O)cn([C@@H]3C[C@@H]3F)c12 (stereo partly drawn) [Compd. 6]
MIC (M. avium; M. avium N-357, Table 3): 0.39 µg/mL (≈ 0.93 µM)
MIC (M. avium; M. avium N-444, Table 3): 1.56 µg/mL (≈ 3.72 µM)
MIC (M. avium; M. avium N-458, Table 3): 0.78 µg/mL (≈ 1.86 µM)
MIC (M. avium; M. avium N-472, Table 3): 3.13 µg/mL (≈ 7.46 µM)
MIC (M. intracellulare; [2]): 0.78 µg/mL (≈ 1.86 µM)
MIC (M. intracellulare; [3]): 0.78 µg/mL (≈ 1.86 µM)
MIC (M. intracellulare; [4]): 1.56 µg/mL (≈ 3.72 µM)
MIC (M. intracellulare; [5]): 3.13 µg/mL (≈ 7.46 µM)
MIC ([1]; M. tuberculosis H37Rv, Table 5): 0.10 µg/mL (≈ 0.238 µM)
MIC [1, 6]: 0.05 µg/mL (≈ 0.119 µM)
MIC [1, 7]: 0.10 µg/mL (≈ 0.238 µM)
MIC [1, 9]: 0.013 µg/mL (≈ 0.031 µM)
MIC [1, 10]: 0.78 µg/mL (≈ 1.86 µM)
MIC [1, 8]: 0.05 µg/mL (≈ 0.119 µM)

— patent US7176313B2, “Anti acid-fast bacterial agent containing pyridonecarboxylic acids as active ingredient” (Daiichi Pharmaceutical Co., Ltd., priority 2000, dated 2007)
